Patent US20110039892A1, “IMINOPYRIDINE DERIVATIVE AND USE THEREOF” (TAKEDA PHARMACEUTICAL COMPANY LIMITED, priority 2008, published 2011)
Counter-ions that a name gives are not always drawn.

Target: T1, human α1D adrenergic receptor (Homo sapiens, UniProt P25100)
T1 construct: expressed in transfected cells; membrane fraction used
T1 sequence (P25100 1-572): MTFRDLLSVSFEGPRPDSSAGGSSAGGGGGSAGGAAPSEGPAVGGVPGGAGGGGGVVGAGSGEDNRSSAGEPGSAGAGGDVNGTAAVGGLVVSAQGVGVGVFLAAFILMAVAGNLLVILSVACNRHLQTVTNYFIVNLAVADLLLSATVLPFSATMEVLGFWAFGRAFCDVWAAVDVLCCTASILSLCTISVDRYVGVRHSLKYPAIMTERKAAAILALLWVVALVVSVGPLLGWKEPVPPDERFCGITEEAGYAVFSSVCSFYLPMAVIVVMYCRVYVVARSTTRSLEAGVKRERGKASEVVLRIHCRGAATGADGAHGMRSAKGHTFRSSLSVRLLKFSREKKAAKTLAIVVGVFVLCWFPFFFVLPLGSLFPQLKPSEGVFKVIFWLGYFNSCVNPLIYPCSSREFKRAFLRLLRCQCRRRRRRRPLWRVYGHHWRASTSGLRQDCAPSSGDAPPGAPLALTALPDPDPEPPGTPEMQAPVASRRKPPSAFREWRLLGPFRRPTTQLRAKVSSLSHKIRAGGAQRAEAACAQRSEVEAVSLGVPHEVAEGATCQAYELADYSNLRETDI
Assay: Measurement of α1D adrenergic receptor binding inhibitory activity ([3H]-prazosin binding to membrane fraction of CHO-K1 cells expressing the receptor)
Details: compound at 1 μM; [3H]-prazosin 2.5 nM; membrane fraction 20 μg/well; room temperature, 1 hr; read-out: Binding inhibitory rate (%) (α1D adrenergic receptor binding inhibitory rate)
Protocol: Measurement of α1D Adrenergic Receptor Binding Inhibitory Activity
(i) Preparation of Human α1D Adrenergic Receptor Expression Plasmid
α1D Adrenergic Receptor Gene was Cloned from Human Liver cDNA by the PCR method. PCR reaction was performed by Gene Amp PCR System 9700 (Applied Biosystems) with 50 pmol each of the primer set 5′-[…]-3′ [SEQ ID NO: 1] and 5′-[…]-3′ [SEQ ID NO: 2] prepared in reference to the base sequence of the α1D adrenergic receptor gene reported by DEBRA A. et al. (J. Pharamacol. Exp. Ter., 272, 134-142 (1995)), 200 ng of human brain hippocampus cDNA library (Takara Shuzo Co., Ltd.) as a template and TaKaRa LA-Taq DNA Polymerase (Takara Shuzo Co., Ltd.) (reaction conditions: 45 cycles of 94° C. for 15 sec, 68° C. for 3.5 min).
The PCR fragment obtained above was digested with restriction enzymes NheI (Takara Shuzo Co., Ltd.) and Kpn I (Takara Shuzo Co., Ltd.), and applied to agarose gel electrophoresis to recover DNA fragments. The DNA fragments were ligated with animal cell expression plasmid pcDNA3.1/Zeo (Invitrogen) digested with NheI and Kpn I, by DNA Ligation Kit Ver. 2 (Takara Shuzo Co., Ltd.), and transformed the competent cells of Escherichia coli JM109 to obtain plasmid, pcDNA3.1/Zeo-Adreα1D.
(ii) Introduction of Human α1D Adrenergic Receptor Expression Plasmid into CHO-K1 Cells and Preparation of Membrane Fraction
CHO-K1 cells passage cultured in HamF12 medium (Invitrogen) containing 10% fetal bovine serum (TRACE SCIENCETIFIC) in a 150 cm^2 culture flask (Corning Coaster) were detached with 0.5 g/L trypsin-0.2 g/L EDTA (Invitrogen), and the cells were washed with D-PBS(−) (Invitrogen) and centrifuged (1000 rpm, 5 min). Then, using Gene Pulser II (BioRad), DNA was introduced into the cells under the following conditions. 1×10^7 cells suspended in D-PBS(−) (700 μl) and 10 μg of pcDNA3.1/Zeo-Adreα1D were added in a 0.4 cm gap cuvette (BioRad), and electroporation was performed under voltage 0.25 kV, capacitance 960 μF. The cells were cultured in HamF12 medium containing 10% fetal bovine serum and 250 μg/mL Zeocin (Invitrogen) and the Zeocin resistance clones were selected.
Plurality of Zeocin resistance clones were selected and cultured in a cell culture flask (150 cm^2) until semiconfluent, and the cellular membrane fraction was prepared as follows.
The semiconfluent cells were detached with 0.02% EDTA containing D-PBS(−) and recovered by centrifugation. The cells were suspended in membrane preparation buffer (10 mM NaHCO3 pH 7.4, protease inhibitor cocktail (Roche)) and disrupted by 3 times of treatment in a polytron homogenizer (model PT-3100, KINEMATICA AG) at 20000 rpm for 20 seconds. After disruption, the cells were centrifuged at 2000 rpm for 10 min and the supernatant containing membrane fractions was obtained. The supernatant was centrifuged using an ultracentrifuge (model L8-70M, rotor 70 Ti, Beckman Instruments) at 30000 rpm for 1 hr to obtain a precipitate containing membrane fractions. The obtained membrane fraction of each clone was subjected to the binding experiment shown below.
The membrane fraction (20 μg/well) and [^3H]-prazosin (2.5 nM, PerkinElmer Lifescience), as a ligand, were diluted with a binding assay buffer (50 mM Tris-HCl, 10 mM MgCl2, 0.5% BSA, protease inhibitor cocktail pH 7.5), added to a 96 well microplate, and reacted at room temperature for 1 hr. For the measurement of non-specific binding, phentolamine (Sigma) was further added to 10 μM. Then, the reaction mixture was filtered and transferred to unifilter GF/C (PerkinElmer Lifescience) by using a cell harvester (PerkinElmer Lifescience). The filter was washed 3 times with ice-cooled 50 mM Tris buffer (pH 7.5). After drying the filter, MicroScinti 0 (PerkinElmer Lifescience) was added to the filter and the radioactivity was measured by TopCount (PerkinElmer Lifescience).
(iii) Evaluation of Example Compound […]

Structure (SMILES) | inhibition at 1 µM
N=c1c(C(N)=O)cc(Cl)cn1C1CCc2ccc(Cl)cc21 (stereo not shown) [Example 2, 5-chloro-1-(6-chloro-2,3-dihydro-1H-inden-1-yl)-2-imino-1,2-dihydropyridine-3-carboxamide] | 102%
C[C@H](c1ccc(F)cc1)n1cc(Cl)cc(C(N)=O)c1=N [Example 22, 5-chloro-1-[(1R)-1-(4-fluorophenyl)ethyl]-2-imino-1,2-dihydropyridine-3-carboxamide hydrochloride] | 96.1%
CC(c1ccsc1)n1cc(Cl)cc(C(N)=O)c1=N (stereo not shown) [Example 5, 5-chloro-2-imino-1-(1-(thiophen-3-yl)ethyl)-1,2-dihydropyridine-3-carboxamide hydrochloride] | 79.4%
N=c1c(C(N)=O)cc(Cl)cn1C1(c2ccccc2)CC1 [Example 15, 5-chloro-2-imino-1-(1-phenylcyclopropyl)-1,2-dihydropyridine-3-carboxamide] | 62%
N#Cc1ccc2c(c1)C(n1cc(Cl)cc(C(N)=O)c1=N)CC2 (stereo not shown) [Example 19, 5-chloro-1-(6-cyano-2,3-dihydro-1H-inden-1-yl)-2-imino-1,2-dihydropyridine-3-carboxamide hydrochloride] | 94.8%
CC(c1cccc(Cl)c1)n1cc(Cl)cc(C(N)=O)c1=N (stereo not shown) [Example 1, 5-chloro-1-[1-(3-chlorophenyl)ethyl]-2-imino-1,2-dihydropyridine-3-carboxamide] | 100%
C[C@H](c1cccc(C#N)c1)n1cc(Cl)cc(C(N)=O)c1=N [Example 23, 5-chloro-1-[(1R)-1-(3-cyanophenyl)ethyl]-2-imino-1,2-dihydropyridine-3-carboxamide hydrochloride] | 100%
C[C@H](c1cccc(F)c1)n1cc(Cl)cc(C(N)=O)c1=N [Example 12, 5-chloro-1-[(1R)-1-(3-fluorophenyl)ethyl]-2-imino-1,2-dihydropyridine-3-carboxamide hydrochloride] | 97%
N=c1c(C(N)=O)cc(Cl)cn1C1CCS(=O)(=O)c2ccc(Cl)cc21 (stereo not shown) [Example 30, 5-chloro-1-(6-chloro-1,1-dioxido-3,4-dihydro-2H-thiochromen-4-yl)-2-imino-1,2-dihydropyridine-3-carboxamide hydrochloride] | 96.9%
C[C@H](c1cc(F)cc(F)c1)n1cc(Cl)cc(C(N)=O)c1=N [Example 14, 5-chloro-1-[(1R)-1-(3,5-difluorophenyl)ethyl]-2-imino-1,2-dihydropyridine-3-carboxamide hydrochloride] | 100%
